# Measurements as given in patent publication US20020127605A1 (priority 2000, published 2002).
# Target: T1, recombinant rat CyPA-GST fusion protein (Rattus norvegicus, UniProt P10111)
# T1 construct: made in house; host or cells: E. coli BL21
# Test: Rotamase (prolyl peptidyl cis-trans isomerase) inhibition, chymotrypsin-coupled cuvette assay
# Assay type: biochemical
# Details: not given
# Description: A number of substrates for rotamase are known in the art or can be derived from those known. Typically, the substrate contacts a sample containing a protein with rotamase activity and the conversion of the substrate is detected after a period of time. The method for detecting conversion of the substrate will vary with the particular substrate chosen. One method has been termed the Ki test (See Harding, et al., Nature, 341:758-760 (1989). The cis-trans isomerization of an alanine-proline bond in a model substrate, N-succinyl-Ala-Ala-Pro-Phe-p-nitroanilide, is monitored spectrophotometrically in a chymotrypsin-coupled assay. The action of chymotrypsin releases p-nitroaniline from only the trans form of the substrate. The amount of p-nitroaniline can be monitored in a spectrophotometer, for example. Other methods of detecting the presence of p-nitroaniline can also be used. The inhibition of this reaction caused by different concentrations of inhibitor is determined and the data are analyzed as a change in first-order rate constant as a function of inhibitor concentration, which yields the Ki value.
# The following were added to a plastic cuvette: […] of ice cold assay buffer (25 mM HEPES, pH 7.8, 100 mM NaCl), 10 μL of CyP A (2.5 μM in 10 mM Tris-Cl pH 7.5, 100 mM NaCl, 1 mM dithiothreitol), 25 μL of chymotrypsin (50 mg/ml in 1 mM HCl), and 10 μL of test compound, at various concentrations, in dimethyl sulfoxide. The reaction was initiated by the addition of 5 μL of substrate (succinyl-Ala-Phe-Pro-Phe-para-nitroanilide, 5 mg/mL in 470 mM LiCl in trifluoroethanol). The absorbance at 390 nm versus time was monitored for 90 seconds using a spectrophotometer and the rate constants were determined from the absorbance versus time data files.
# The IC50 values that were obtained for representative compounds in the following Table I refer to the concentration that inhibits 50% of the rotamase activity in a sample. […] The Cyclophilin utilized was a recombinant rat CyPA-GST fusion protein: CypA was amplified from rat brain cDNA using standard PCR methods, primed with the following sequences: 5′ CCCCCCGGGAGTCAACCCCACCGTGTTCTTCGA 3′ and 5′ GGAGATCTAGAGTTGTCCACAGTCGGAGATGGT 3′. The resulting fragment (573 base pairs) was cloned into pCRII and amplified. The CyP sequence was cut out with Smal and EcoRl and cloned into the Smal/EcoRl sites in pGEX2TK (Pharmacia). This plasmid was transformed into BL21 E. coli cells for expression of the GST-CyPA fusion protein.
# T1 sequence (P10111 2-164): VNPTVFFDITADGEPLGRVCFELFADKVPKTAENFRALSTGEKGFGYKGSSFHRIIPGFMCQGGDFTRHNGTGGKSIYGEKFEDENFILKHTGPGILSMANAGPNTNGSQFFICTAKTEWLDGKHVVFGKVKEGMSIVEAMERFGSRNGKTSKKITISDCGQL
row,Compound,IC50 [nM]
1,Cc1ccc(S(=O)(=O)N(c2cccc(NC(=O)Nc3cc(Cl)cc(Cl)c3)c2)S(=O)(=O)c2ccc(C)cc2)cc1 [Compound 2],149
2,COc1ccc(S(=O)(=O)N(c2cccc(NC(=O)c3cc(Cl)cc(Cl)c3)c2)S(=O)(=O)c2ccc(C)cc2)cc1 [Compound 3],955
3,O=C(Nc1cccc(N(S(=O)(=O)c2cc(Cl)cc(Cl)c2)S(=O)(=O)c2cc(Cl)cc(Cl)c2)c1)Nc1c(Cl)cccc1Cl [Compound 6],990
4,O=C(Nc1cc(Cl)cc(Cl)c1)Nc1cccc(N(S(=O)(=O)c2cc(Cl)cc(Cl)c2)S(=O)(=O)c2cc(Cl)cc(Cl)c2)c1 [Compound 7],1220
5,O=C(Nc1cc(Cl)cc(Cl)c1)[C@@H]1CC[C@H](NC(=S)Nc2cc(Cl)cc(Cl)c2)C1 [Compound 17],854
6,O=C(Nc1cccc(Oc2ccccc2)c1)Nc1cc(C(F)(F)F)cc(C(F)(F)F)c1 [Compound 26],1560
7,O=C(Nc1cc(Cl)cc(Cl)c1)Nc1ccccc1NC(=O)Nc1cc(Cl)cc(Cl)c1 [Compound 27],667
8,O=C(Nc1ccccc1NC(=O)c1ccc(I)cc1)c1ccc(I)cc1 [Compound 29],940

# Same assay, conditions: recombinant rat CyPA-GST fusion protein; values without asterisk; read-out: IC50 (rotamase activity)
row,Compound,IC50 [nM]
1,"COc1ccc(S(=O)(=O)N(c2cccc(NC(=O)Nc3cc(Cl)cc(Cl)c3)c2)S(=O)(=O)c2ccc(C)cc2)cc1 [Compound 1, [(3,5-dichlorophenyl)amino]-N-(3-{[(4-methoxylihenyl)sulfonyl][(4-methylphenyl)sulfonyl]amino}phenyl)formamide]",162
2,"COc1ccc(S(=O)(=O)N(c2cccc(N(S(=O)(=O)c3cc(Cl)cc(Cl)c3)S(=O)(=O)c3cc(Cl)cc(Cl)c3)c2)S(=O)(=O)c2ccc(C)cc2)cc1 [Compound 4, (3-{bis[(3,5-dichlorophenyl)sulfonyl]amino}phenyl)[(4-methoxy-phenyl)sulfonyl][(4-methylphenyl)sulfonyl]amine]",995
3,"COc1ccc(S(=O)(=O)N(c2cccc(N(S(=O)(=O)c3cc(Cl)cc(Cl)c3)S(=O)(=O)c3cc(Cl)cc(Cl)c3)c2)S(=O)(=O)c2ccc(OC)cc2)cc1 [Compound 10, (3-{Bis[(3,5-dichlorolphenyl)sulfonyl]amino}phenyl)bis[(4-methoxyphenyl)sulfonyl]amine]",732
4,"FC(F)(F)c1cc(NC(=S)NC2CCCCC2NC(=S)Nc2cc(C(F)(F)F)cc(C(F)(F)F)c2)cc(C(F)(F)F)c1 (stereo not shown) [Compound 12, {[3,5-bis(trifluoromethyl)phenyl]amino}({2-[({[3,5-bis(trifluoromethyl)phenyl]amino}thioxomethyl)amino]cyclohexyl}amino)methane-1-thione]",767
5,"S=C(Nc1ccc(Cl)c(Cl)c1)NC1CCCCC1NC(=S)Nc1ccc(Cl)c(Cl)c1 (stereo not shown) [Compound 14, [(3,4-dichlorophenyl)amino]{[2-({[(3,4-dichlorophenyl)amino]thioxomethyl}amino)cyclohexyl]amino}methane-1-thione]",786
6,"S=C(Nc1cc(Cl)cc(Cl)c1)NC1CCCCC1NC(=S)Nc1cc(Cl)cc(Cl)c1 (stereo not shown) [Compound 15, [(3,5-dichlorophenyl)amino]{[2-({[(3,5-dichlorophenyl)amino]thioxomethyl}amino)cyclohexyl]amino}methane-1-thione]",610
7,"O=C(Nc1cc(Cl)cc(Cl)c1)N[C@H]1CC[C@@H](NC(=O)Nc2cc(Cl)cc(Cl)c2)CC1 [Compound 16, cis-[(3,5-Dichlorophenyl)amino]-N-(4-{[(3,5-dichlorolphenyl)amino]carbonylamino}cyclohexyl)formamide]",1530
8,"O=C(Nc1cc(Cl)cc(Cl)c1)[C@@H]1C=C[C@H](NC(=S)Nc2cc(Cl)cc(Cl)c2)C1 [Compound 18, (1S,3R)-N-(3,5-dichlorophenyl)[4-({[(3,5-dichlorolphenyl)amino]thioxomethyl}amino)cyclopent-2-enyl]formamide]",901
9,O=C(Nc1cc(Cl)cc(Cl)c1)[C@H]1CC[C@@H](NC(=S)Nc2cc(Cl)cc(Cl)c2)C1 [Compound 19],754
10,S=C(Nc1cc(Cl)cc(Cl)c1)Nc1cccc(C=C(c2ccc(Cl)cc2)c2ccc(Cl)cc2)c1 [Compound 20],188
11,O=C(NNC(=S)Nc1cc(Cl)cc(Cl)c1)c1cccc(OCc2cc(C(F)(F)F)cc(C(F)(F)F)c2)c1 [Compound 23],895
12,"O=C(COc1cccc(NC(=O)c2cc(Cl)cc(Cl)c2)c1)Nc1cc(Cl)cc(Cl)c1 [Compound 24, N-(3,5-dichlorophenyl)-2-{3-[(3,5-dichlorolphenyl)carbonylamino]phenoxy}ethanamide]",909
13,"bis[(3,5-dichlorophenyl)sulfonyl](3-{[(naphthylamino) thioxomethyl]amino}phenyl)amine [Compound 5]",783

# Second part, the compound after the results:
row,IC50 [nM],Compound
1,964,"O=C(Nc1cccc(OS(=O)(=O)c2c(F)c(F)c(F)c(F)c2F)c1)c1cc(Cl)cc(Cl)c1 [Compound 25, 3-[(3,5-dichlorophenyl)carbonylamino]phenyl 2,3,4,5,6-penta-fluorobenzenesulfonate]"
2,1100,"S=C(Nc1cc(Cl)cc(Cl)c1)Nc1ccccc1NC(=S)Nc1cc(Cl)cc(Cl)c1 [Compound 28, [(3,5-dichlorophenyl)amino]{[2-({[(3,5-dichlorophenyl)amino]thioxomethyl}amino)phenyl]amino}methane-1-thione]"

# Target: human recombinant CyPA (Homo sapiens, UniProt P62937)
# Sequence (P62937 whole entry): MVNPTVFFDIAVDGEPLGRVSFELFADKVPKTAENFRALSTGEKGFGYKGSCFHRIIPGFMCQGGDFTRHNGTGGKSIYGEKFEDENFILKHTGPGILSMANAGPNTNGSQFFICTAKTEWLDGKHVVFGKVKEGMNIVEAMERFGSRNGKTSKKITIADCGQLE
# Test: Semiautomated microtiter plate assay of rotamase activity inhibition
# Assay type: biochemical
# Details: 30 minute preincubation at 4° C., read-out: IC50 (rotamase inhibition, modified plate reader assay)
# Method: Semiautomated Assay of Rotamase Activity Inhibition: Rotamase inhibition was determined using a semiautomated microtiter plate assay modification of the above described assay [see Küillertz et al., Clin. Chem. 44, 502-508 (1998)]. All dilutions of CyPA, peptide substrate, and chymotrypsin were made in 35 mM ice-cold HEPES buffer. Fifty μL of CyPA solution were added to 50 μL of peptide substrate solution (Phe-Pro-Phe p-nitroanilide, 0.16 mg/ml) in a glass microtiter well plate (the concentration of human recombinant CyP being adjusted so that the reaction rate is increased by a factor of 3 as compared to an uncatalyzed control reaction wherein the peptide substrate is degraded by chymotrypsin alone, in the absence of CyPA and test compound). Using a Beckman Multimek™ 96 automated 96-channel pipettor, 5 μL of test compound solution, or a DMSO blank, were added to each well for a 30 minute preincubation at 4° C. One hundred μL of chymotrypsin solution (1 mg/mL) were added to each well and the absorbance at 390 nm versus time was monitored for 9-10 minutes using a BioRad Ultramark plate reader maintained at 4° C. and the rate constants were determined from the absorbance versus time data files. The cyclophilin utilized was a human recombinant CyPA [Yoo et al., J. Mol. Biol., 269 (1997) 780-95].
# IC50 values which were obtained for representative compounds using this modified plate reader assay of rotamase inhibition are given in the following Table II: […]
row,IC50 [nM],Compound
1,309,"O=S(=O)(c1cc(Cl)cc(Cl)c1)N(c1cccc(N(S(=O)(=O)c2ccc3ccccc3c2)S(=O)(=O)c2ccc3ccccc3c2)c1)S(=O)(=O)c1cc(Cl)cc(Cl)c1 [Compound 9, (3-{Bis[(3,5-dichlorophenyl)sulfonyl]amino}phenyl)bis(2-naphthylsulfonyl)amine]"
2,154,"O=C(CCCCCc1cccc(C(F)(F)F)c1)Nc1cccc(C(=O)NNC(=S)Nc2ccc(Cl)c(Cl)c2)c1 [Compound 32, 1-{[1-Aza-2-oxo-7-(3-trifluoromethylphenyl)]heytyl}-3-{[5-(3 4-dichlorophenyl)-1-oxo-2,3,5-triaza-4-thio]pentyl}benzene]"
3,4640,O=C(CCCCc1ccccc1)Nc1cccc(S(=O)(=O)NC(=S)Nc2ccc(Cl)c(Cl)c2)c1 [Compound 34A]
4,19100,O=C(CCCCc1ccccc1)Nc1cccc(S(=O)(=O)NC(=O)Nc2ccc(Cl)c(Cl)c2)c1 [Compound 34B]
5,372,O=C(CCCCc1ccccc1)Nc1cccc(S(=O)(=O)NNC(=S)Nc2ccc(Cl)c(Cl)c2)c1 [Compound 35]
6,532,"O=C(CCCCCCc1ccccc1)Nc1cccc(C(=O)NNC(=S)Nc2ccc(Cl)c(Cl)c2)c1 [Compound 37, 1-{3-[(7-Phenyl)heptanoylamino]benzoyl}-4-(3,4-dichlorophenyl)thiosemicarbazide]"
7,672,"O=C(CCCCc1cccs1)Nc1cccc(C(=O)NNC(=S)Nc2ccc(Cl)c(Cl)c2)c1 [Compound 38, 1-{[1-Aza-2-oxo-6-(thien-2-yl)]hexyl}-3-{[5-(3,4-dichlorophenyl)-1-oxo-2,3,5-triaza-4-thio]pentyl}benzene]"
8,1410,"O=C(CCCCc1ccccc1)Nc1cccc(/C=N/NC(=S)Nc2ccc(Cl)c(Cl)c2)c1 [Compound 39, N-{3-[(1E)-2-aza-2-({[(3,4-dichlorophenyl)amino]thioxomethyl}amino)vinyl]phenyl}-5-phenylpentanamide]"
